Measurements from patent US11480583B2, “Method for the diagnosis and treatment of essential primary hypertension” (Universiteit Maastricht, priority 2020, dated 2022).
“Also recorded” adds a separate entry of the source.

Tests used:
[1] = test system: femoral arteries of aged NOX5 KI and WT mice; experiment: Wire myograph, relaxing responses of isolated femoral arteries; set-up: species or system mouse; conditions: for Relaxation induced by BAY 60-2770, WT versus KI / Endothelium-independent relaxation induced by PAPA/NO, WT versus KI: femoral arteries, 0.01-10 μM; for Reversal of impaired Ach-induced relaxation by antioxidant: femoral arteries of aged KI mice contracted with 10 μM phenylephrine, Ach 10 μM
Procedure: After mice were sacrificed, thoracic aortae, femoral and saphenous arteries were dissected free from perivascular adipose tissue and mounted in a wire myograph (DMT, Aarhus, DK). The organ chamber was filled with Krebs-Ringer bicarbonate-buffered salt solution (KRB) that was continuously aerated with 95% O2/5% CO2 and maintained at 37° C. Passive stretch procedure was performed to mimic the physiologically relevant internal lumen diameter as previously described. Arterial contractile and relaxing responses were recorded at lumen diameters corresponding to a distending pressure of 100 mmHg in thoracic aorta and femoral artery and at 90% of this diameter in the resistance-sized saphenous artery. […] The diameter tension relationships were constructed according to the law of Laplace for a cylindrical tube: P=T/R (with P for transmural pressure, T for wall tension and R for the lumen radius of the tube). Consequently, wall stiffness can be determined equally by recording 1) changes in tension in response to imposed changes in radius (wire myography) or 2) changes in radius in response to changes in transmural pressure (pressure myography). Here we used the former approach because it has a higher throughput than the latter. Stress-strain relationships and even better “incremental elastic (Young's) modulus” (which require additional recording of wall thickness) only come into play to discriminate between structural and material property contributions to changes in arterial stiffness. Part of the isolated thoracic aorta was studied in the absence and part in the continuous presence of 10 μM indomethacin to inhibit production of prostaglandins that can act as endothelium-derived vasoactive factors in this vessel. The vessels were tested for their contractile response to 40 mM K+, concentration-response curves of phenylephrine (0.01 to 100 μM) and endothelin-1 (1-256 nM) followed by acetylcholine (Ach) (0.01 to 100 μM), PAPA/NO (0.01-10 μM) or Bay60-2770 (0.01-10 μM)-induced relaxations. The wall tension of the vessel segment was continuously recorded with LabChart Pro (ADInstruments, Oxford, UK).

[2] = test system: thoracic aortae of aged NOX5 KI and WT mice; experiment: Wire myograph, responses of isolated thoracic aortae; set-up: species or system mouse; conditions: for Endothelium-independent relaxation induced by PAPA/NO, WT versus KI: thoracic aortae with/without indomethacin, 0.01-10 μM
Procedure: (§1) After mice were sacrificed, thoracic aortae, femoral and saphenous arteries were dissected free from perivascular adipose tissue and mounted in a wire myograph (DMT, Aarhus, DK). The organ chamber was filled with Krebs-Ringer bicarbonate-buffered salt solution (KRB) that was continuously aerated with 95% O2/5% CO2 and maintained at 37° C. Passive stretch procedure was performed to mimic the physiologically relevant internal lumen diameter as previously described. Arterial contractile and relaxing responses were recorded at lumen diameters corresponding to a distending pressure of 100 mmHg in thoracic aorta and femoral artery and at 90% of this diameter in the resistance-sized saphenous artery. […] The diameter tension relationships were constructed according to the law of Laplace for a cylindrical tube: P=T/R (with P for transmural pressure, T for wall tension and R for the lumen radius of the tube). Consequently, wall stiffness can be determined equally by recording 1) changes in tension in response to imposed changes in radius (wire myography) or 2) changes in radius in response to changes in transmural pressure (pressure myography). Here we used the former approach because it has a higher throughput than the latter. Stress-strain relationships and even better “incremental elastic (Young's) modulus” (which require additional recording of wall thickness) only come into play to discriminate between structural and material property contributions to changes in arterial stiffness. Part of the isolated thoracic aorta was studied in the absence and part in the continuous presence of 10 μM indomethacin to inhibit production of prostaglandins that can act as endothelium-derived vasoactive factors in this vessel. […] The wall tension of the vessel segment was continuously recorded with LabChart Pro (ADInstruments, Oxford, UK).

[3] = test system: saphenous arteries of aged NOX5 KI and WT mice; experiment: Wire myograph, relaxing responses of isolated saphenous arteries; set-up: species or system mouse; conditions: for Endothelium-independent relaxation induced by PAPA/NO, WT versus KI: saphenous arteries, 0.01-10 μM
Procedure: as §1

[4] = test system: femoral arteries of aged NOX5 KI mice; experiment: Superoxide formation, DHE staining of femoral artery cryo-sections; set-up: species or system mouse; conditions: pre-treatment with 500 μM L-NAME for 30 min at 37° C.
Procedure: Superoxide was measured in femoral arteries using the florescence dye dihydroethidium (DHE) (Thermo Scientific Technology, The Netherlands). Frozen femoral arteries cryo-sections were fixated in 4% paraformaldehyde (PFA) in PBS and then incubated with 2 μM DHE for 30 minutes at 37° C. After three washing steps with PBS, slices were incubated with DAPI (Sigma-Aldrich, The Netherlands) […] for 10 min. Sections were washed in PBS and then mounted using a Dako Fluorescence Mounting Medium ([…], Agilent Technologies). Immunofluorescent signals were viewed using a Leica DM13000 B fluorescence microscope. Some arteries were pre-treated with 500 μM L-NAME for 30 min at 37° C. before performing the DHE staining.

elevated blood pressure = conditions: by improving endothelial function; cited from earlier work
[5] = test system: elevated blood pressure induced by NOS uncoupling; conditions: cited from earlier work

O=C(O)CCCCN(CCc1cc(F)ccc1OCc1ccc(-c2ccc(C(F)(F)F)cc2)cc1)Cc1ccc(C(=O)O)cc1 [BAY 60-2770]
Relaxation induced by BAY 60-2770, WT versus KI [1]: Neither the PAPA/NO (FIGS. 13 A-C) nor the BAY 60-2770 response (FIG. 11 D) differed between WT and KI mice | Relaxation induced by BAY 60-2770, WT versus KI ([1]; listed as Bay60-2770): did not differ

COC(=O)[C@@H](N)CCCNC(=N)N[N+](=O)[O-] [L-NAME]
Effect of L-NAME on Ach-induced relaxation ([1]; femoral arteries of aged KI and WT mice contracted with 256 nM endothelin-1, 100 μM L-NAME): reversed | Effect of L-NAME on Ach-induced relaxation ([2]; thoracic aortae of aged KI and WT mice contracted with 256 nM endothelin-1, 100 μM L-NAME): reversed | Effect of L-NAME on Ach-induced relaxation ([3]; saphenous arteries of aged KI and WT mice contracted with endothelin-1, 100 μM L-NAME): did not modify the relaxing effects of Ach | Superoxide formation (DHE staining), increase in KI versus WT [4]: inhibited

CC(=O)N[C@@H](CS)C(=O)O [N-acetylcysteine]
Reversal of impaired Ach-induced relaxation by antioxidant ([1]; 10 μM N-acetylcysteine): not reversed

CCCN(CCCN)/[N+]([O-])=N/O [PAPA/NO]
Endothelium-independent relaxation induced by PAPA/NO, WT versus KI [1]: Neither the PAPA/NO (FIGS. 13 A-C) nor the BAY 60-2770 response (FIG. 11 D) differed between WT and KI mice | Endothelium-independent relaxation induced by PAPA/NO, WT versus KI ([1]; listed as PAPA NO): did not differ | Endothelium-independent relaxation induced by PAPA/NO, WT versus KI [2]: Neither the PAPA/NO (FIGS. 13 A-C) nor the BAY 60-2770 response (FIG. 11 D) differed between WT and KI mice | Endothelium-independent relaxation induced by PAPA/NO, WT versus KI ([2]; listed as PAPA NO): did not differ | Endothelium-independent relaxation induced by PAPA/NO, WT versus KI [3]: Neither the PAPA/NO (FIGS. 13 A-C) nor the BAY 60-2770 response (FIG. 11 D) differed between WT and KI mice | Endothelium-independent relaxation induced by PAPA/NO, WT versus KI ([3]; listed as PAPA NO): did not differ

Nc1nc2ncc(CNc3ccc(C(=O)N[C@@H](CCC(=O)O)C(=O)O)cc3)nc2c(=O)[nH]1 [folic acid]
Reduction of elevated blood pressure, clinical (elevated blood pressure): clinically effective to reduce elevated blood pressure

C[C@H](O)C(=O)C1=Nc2c(nc(N)[nH]c2=O)NC1 [sepiapterin]
Ach-induced relaxation after pre-treatment with sepiapterin ([1]; femoral arteries of aged KI mice pre-contracted with phenylephrine, sepiapterin 100 μM, compared with WT): improved relaxation in KI; also recorded: greatly improved and became indistinguishable from those in WT | Blood pressure lowering, preclinical [5]: lower elevated blood pressure induced by NOS uncoupling

CC1(C)CC(O)CC(C)(C)N1[O] [tempol]
Reversal of impaired Ach-induced relaxation by antioxidant ([1]; 100 μM tempol): not reversed
